# Reference: ChEMBL document CHEMBL1201861, “Genomics of Drug Sensitity in Cancer screening data, Wellcome Trust Sanger Institute”
# Columns and labels:
# 769-P = experiment: cells; format: functional, cell-based; conditions: Homo sapiens
# Description: SANGER: Inhibition of human 769-P cell growth in a cell viability assay.
# DMS-79 = experiment: cells; format: functional, cell-based, Homo sapiens; conditions: Homo sapiens, DMS-79
# Description: SANGER: Inhibition of human DMS-79 cell growth in a cell viability assay.
# BOKU = experiment: cells; format: functional, cell-based; conditions: Homo sapiens;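 further: growth inhibition of the human BOKU cell line, read out by a cell viability assay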
# Description: SANGER: Inhibition of human BOKU cell growth in a cell viability assay.
# YAPC = experiment: cells; format: functional, cell-based; conditions: Homo sapiens;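 further: growth inhibition of YAPC cells, measured with a cell viability assay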
# Description: SANGER: Inhibition of human YAPC cell growth in a cell viability assay.
# 23132-87 = experiment: cells; format: functional, cell-based; conditions: Homo sapiens
# Description: SANGER: Inhibition of human 23132-87 cell growth in a cell viability assay.
# LB373-MEL-D = experiment: cells; format: functional, cell-based, Homo sapiens; conditions: Homo sapiens, LB373-MEL-D;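 further: growth inhibition of the cell line, read out in a cell viability assay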
# Description: SANGER: Inhibition of human LB373-MEL-D cell growth in a cell viability assay.
# UACC-893 = experiment: cells; format: functional, cell-based; conditions: Homo sapiens
# Description: SANGER: Inhibition of human UACC-893 cell growth in a cell viability assay.
# SU-DHL-1 = experiment: SANGER: Inhibition of human SU-DHL-1 cell growth in a cell viability assay.; format: functional, cell-based; conditions: Homo sapiens, SU-DHL-1
# CaR-1 = experiment: cells; format: functional, cell-based; conditions: Homo sapiens;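 further: growth inhibition of human CaR-1 cancer cells, read out with a cell viability assay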
# Description: SANGER: Inhibition of human CaR-1 cell growth in a cell viability assay.
# HEC-1 = experiment: cells; format: functional, cell-based; conditions: Homo sapiens;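 further: growth inhibition of the cell line, read out with a cell viability assay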
# Description: SANGER: Inhibition of human HEC-1 cell growth in a cell viability assay.
# U2OS = experiment: cells; format: functional, cell-based, U-2-OS; conditions: Homo sapiens;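 further: growth inhibition of human U-2-OS cells, determined with a cell viability assay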
# Description: SANGER: Inhibition of human U-2-OS cell growth in a cell viability assay.
# WSU-NHL = experiment: cells; format: functional, cell-based, Homo sapiens; conditions: Homo sapiens, WSU-NHL;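 further: growth inhibition of human WSU-NHL cells, read out with a cell viability assay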
# Description: SANGER: Inhibition of human WSU-NHL cell growth in a cell viability assay.
# NCI-H1693 = experiment: cells; format: functional, cell-based; conditions: Homo sapiens;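 further: growth inhibition of the human cell line, read out with a cell viability assay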
# Description: SANGER: Inhibition of human NCI-H1693 cell growth in a cell viability assay.
# PC-14 = experiment: cells; format: functional, cell-based; conditions: Homo sapiens;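 further: cell viability assay measuring inhibition of PC-14 cell growth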
# Description: SANGER: Inhibition of human PC-14 cell growth in a cell viability assay.
# HLE = experiment: cells; format: functional, cell-based; conditions: Homo sapiens;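 further: growth inhibition of human HLE cells, read out by a cell viability assay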
# Description: SANGER: Inhibition of human HLE cell growth in a cell viability assay.
# NCI-H1417 = experiment: cells; format: functional, cell-based, Homo sapiens; conditions: Homo sapiens, NCI-H1417;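 further: human NCI-H1417 cells, growth inhibition determined with a cell viability readout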
# Description: SANGER: Inhibition of human NCI-H1417 cell growth in a cell viability assay.
# Huh-7 = experiment: cells; format: functional, cell-based; conditions: Homo sapiens;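 further: HuH-7 cell growth inhibition, read out with a cell viability assay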
# Description: SANGER: Inhibition of human HuH-7 cell growth in a cell viability assay.
# EHEB = experiment: cells; format: functional, cell-based; conditions: Homo sapiens;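 further: growth inhibition of human EHEB cells, read out with a cell viability assay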
# Description: SANGER: Inhibition of human EHEB cell growth in a cell viability assay.
# SW626 = experiment: cells; format: functional, cell-based; conditions: Homo sapiens;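 further: growth inhibition of SW626 cells, measured with a cell viability assay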
# Description: SANGER: Inhibition of human SW626 cell growth in a cell viability assay.
# CAL-39 = experiment: cells; format: functional, cell-based; conditions: Homo sapiens;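 further: cell viability assay measuring growth inhibition of CAL-39 cells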
# Description: SANGER: Inhibition of human CAL-39 cell growth in a cell viability assay.
# NCI-H322M = experiment: cells; format: functional, cell-based, Homo sapiens; conditions: Homo sapiens, NCI-H322M;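 further: cell viability assay measuring inhibition of growth of human NCI-H322M cells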
# Description: SANGER: Inhibition of human NCI-H322M cell growth in a cell viability assay.
# A-431 = experiment: cells; format: functional, cell-based; conditions: Homo sapiens;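 further: growth inhibition of A-431 cells, determined with a cell viability read-out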
# Description: SANGER: Inhibition of human A431 cell growth in a cell viability assay.
# HCC1806 = experiment: cells; format: functional, cell-based; conditions: Homo sapiens;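 further: growth inhibition of the cancer cell line, determined with a cell viability assay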
# Description: SANGER: Inhibition of human HCC1806 cell growth in a cell viability assay.
# SBC-5 = experiment: cells; format: functional, cell-based; conditions: Homo sapiens;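 further: cell viability assay read-out, IC50 is the concentration that inhibits growth of the cells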
# Description: SANGER: Inhibition of human SBC-5 cell growth in a cell viability assay.
# SKG-IIIa = experiment: cells; format: functional, cell-based; conditions: Homo sapiens;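 further: cell growth inhibition, read out with a cell viability assay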
# Description: SANGER: Inhibition of human SKG-IIIa cell growth in a cell viability assay.
# PFSK-1 = experiment: cells; format: functional, cell-based; conditions: Homo sapiens;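 further: cell viability assay measuring how strongly compounds suppress growth of human PFSK-1 cells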
# Description: SANGER: Inhibition of human PFSK-1 cell growth in a cell viability assay.
# A-375 = experiment: cells; format: functional, cell-based; conditions: Homo sapiens;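 further: growth inhibition of A375 cells, read out with a cell viability assay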
# Description: SANGER: Inhibition of human A375 cell growth in a cell viability assay.
# COLO-679 = experiment: cells; format: functional, cell-based; conditions: Homo sapiens
# Description: SANGER: Inhibition of human COLO-679 cell growth in a cell viability assay.
# RL = experiment: cells; format: functional, cell-based, Homo sapiens; conditions: Homo sapiens, RL
# Description: SANGER: Inhibition of human RL cell growth in a cell viability assay.
# NCI-H2170 = experiment: cells; format: functional, cell-based; conditions: Homo sapiens;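 further: cell viability assay measuring growth inhibition of human NCI-H2170 cancer cells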
# Description: SANGER: Inhibition of human NCI-H2170 cell growth in a cell viability assay.
# LoVo = experiment: cells; format: functional, cell-based; conditions: Homo sapiens;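 further: growth inhibition of human LoVo cells, read out with a cell viability assay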
# Description: SANGER: Inhibition of human LoVo cell growth in a cell viability assay.
# OAW-28 = experiment: cells; format: functional, cell-based; conditions: Homo sapiens;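 further: growth inhibition of OAW-28 cells, read out with a cell viability assay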
# Description: SANGER: Inhibition of human OAW-28 cell growth in a cell viability assay.
# Capan-2 = experiment: cells; format: functional, cell-based; conditions: Homo sapiens;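 further: Capan-2 cell growth inhibition, read out with a viability assay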
# Description: SANGER: Inhibition of human Capan-2 cell growth in a cell viability assay.
# THP-1 = experiment: cells; format: functional, cell-based, Homo sapiens; conditions: Homo sapiens, THP-1;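 further: growth inhibition of THP-1 cells, read out via a cell viability assay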
# Description: SANGER: Inhibition of human THP-1 cell growth in a cell viability assay.
# BL-70 = experiment: SANGER: Inhibition of human BL-70 cell growth in a cell viability assay.; format: functional, cell-based; conditions: Homo sapiens, BL-70
# COLO-792 = experiment: cells; format: functional, cell-based; conditions: Homo sapiens
# Description: SANGER: Inhibition of human COLO-792 cell growth in a cell viability assay.
# MHH-ES-1 = experiment: cells; format: functional, cell-based; conditions: Homo sapiens
# Description: SANGER: Inhibition of human MHH-ES-1 cell growth in a cell viability assay.
# COR-L23 = experiment: cells; format: functional, cell-based; conditions: Homo sapiens;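 further: cell viability assay measuring how strongly compounds suppress growth of COR-L23 cells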
# Description: SANGER: Inhibition of human COR-L23 cell growth in a cell viability assay.
# ST486 = experiment: SANGER: Inhibition of human ST486 cell growth in a cell viability assay.; format: functional, cell-based; conditions: Homo sapiens, ST486
# SW1710 = experiment: cells; format: functional, cell-based; conditions: Homo sapiens;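 further: growth inhibition of SW1710 cells, determined with a cell viability assay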
# Description: SANGER: Inhibition of human SW1710 cell growth in a cell viability assay.
# 786-0 = experiment: cells; format: functional, cell-based; conditions: Homo sapiens
# Description: SANGER: Inhibition of human 786-0 cell growth in a cell viability assay.
# HCC 2998 = experiment: cells; format: functional, cell-based; conditions: Homo sapiens;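 further: growth inhibition of human HCC2998 cells, measured with a cell viability read-out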
# Description: SANGER: Inhibition of human HCC2998 cell growth in a cell viability assay.
# BL-41 = experiment: cells; format: functional, cell-based; conditions: Homo sapiens;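 further: growth inhibition of human BL-41 cells, read out with a cell viability assay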
# Description: SANGER: Inhibition of human BL-41 cell growth in a cell viability assay.
# C-33-A = experiment: cells; format: functional, cell-based; conditions: Homo sapiens;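 further: cell viability assay measuring growth inhibition of C-33-A cells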
# Description: SANGER: Inhibition of human C-33-A cell growth in a cell viability assay.
# EB2 = experiment: cells; format: functional, cell-based, Homo sapiens; conditions: Homo sapiens, EB2;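 further: growth inhibition of EB2 cells, read out with a cell viability assay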
# Description: SANGER: Inhibition of human EB2 cell growth in a cell viability assay.
# COLO-680N = experiment: cells; format: functional, cell-based; conditions: Homo sapiens;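 further: cell viability assay used to measure inhibition of COLO-680N cell growth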
# Description: SANGER: Inhibition of human COLO-680N cell growth in a cell viability assay.
# NCI-H1522 = experiment: cells; format: functional, cell-based, Homo sapiens; conditions: Homo sapiens, NCI-H1522;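 further: growth inhibition of NCI-H1522 cells, read out with a cell viability assay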
# Description: SANGER: Inhibition of human NCI-H1522 cell growth in a cell viability assay.
# KYSE-520 cell line = experiment: cells; format: functional, cell-based; conditions: Homo sapiens;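 further: growth inhibition of human KYSE-520 cells, read out with a viability assay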
# Description: SANGER: Inhibition of human KYSE-520 cell growth in a cell viability assay.
# MDA-MB-157 = experiment: cells; format: functional, cell-based; conditions: Homo sapiens
# Description: SANGER: Inhibition of human MDA-MB-157 cell growth in a cell viability assay.
# HuP-T4 = experiment: cells; format: functional, cell-based; conditions: Homo sapiens;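 further: cell viability assay measuring how much HuP-T4 cell growth is inhibited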
# Description: SANGER: Inhibition of human HuP-T4 cell growth in a cell viability assay.
# LU-99A = experiment: cells; format: functional, cell-based; conditions: Homo sapiens;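 further: growth inhibition of LU-99A cells, read out with a cell viability assay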
# Description: SANGER: Inhibition of human LU-99A cell growth in a cell viability assay.
# KU-19-19 = experiment: cells; format: functional, cell-based; conditions: Homo sapiens
# Description: SANGER: Inhibition of human KU-19-19 cell growth in a cell viability assay.
# TE-15 = experiment: cells; format: functional, cell-based, Homo sapiens; conditions: Homo sapiens, TE-15;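 further: cell viability readout of growth inhibition in TE-15 cells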
# Description: SANGER: Inhibition of human TE-15 cell growth in a cell viability assay.
# SAS = experiment: cells; format: functional, cell-based; conditions: Homo sapiens;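 further: growth inhibition of SAS cells, read out with a cell viability assay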
# Description: SANGER: Inhibition of human SAS cell growth in a cell viability assay.
# DG-75 = experiment: cells; format: functional, cell-based, Homo sapiens; conditions: Homo sapiens, DG-75;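 further: growth inhibition of DG-75 cells, read out with a cell viability assay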
# Description: SANGER: Inhibition of human DG-75 cell growth in a cell viability assay.
# NCI-H524 = experiment: cells; format: functional, cell-based, Homo sapiens; conditions: Homo sapiens, NCI-H524;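 further: growth inhibition of human NCI-H524 cells, read out through a cell viability assay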
# Description: SANGER: Inhibition of human NCI-H524 cell growth in a cell viability assay.
# U-698-M = experiment: cells; format: functional, cell-based, Homo sapiens; conditions: Homo sapiens, U-698-M
# Description: SANGER: Inhibition of human U-698-M cell growth in a cell viability assay.
# 639-V = experiment: cells; format: functional, cell-based; conditions: Homo sapiens;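 further: growth inhibition of 639-V cells, read out with a cell viability assay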
# Description: SANGER: Inhibition of human 639-V cell growth in a cell viability assay.
# OE33 = experiment: cells; format: functional, cell-based; conditions: Homo sapiens;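 further: growth inhibition of human OE33 cells, measured by a cell viability assay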
# Description: SANGER: Inhibition of human OE33 cell growth in a cell viability assay.
structure (smiles),measurement,setting,value
O=S(=O)(O)c1ccc2cc(/N=N/c3cc(S(=O)(=O)O)c4cccnc4c3O)ccc2c1,IC50,769-P,> 16000 nM
same,IC50,DMS-79,> 16000 nM
same,IC50,BOKU,> 16000 nM
same,IC50,YAPC,> 16000 nM
same,IC50,23132-87,> 16000 nM
same,IC50,LB373-MEL-D,> 16000 nM
same,IC50,UACC-893,> 16000 nM
same,IC50,SU-DHL-1,> 16000 nM
same,IC50,CaR-1,> 16000 nM
same,IC50,HEC-1,> 16000 nM
same,IC50,U2OS,> 16000 nM
same,IC50,WSU-NHL,> 16000 nM
same,IC50,NCI-H1693,> 16000 nM
same,IC50,PC-14,> 16000 nM
same,IC50,HLE,> 16000 nM
same,IC50,NCI-H1417,> 16000 nM
same,IC50,Huh-7,> 16000 nM
same,IC50,EHEB,> 16000 nM
same,IC50,SW626,> 16000 nM
same,IC50,CAL-39,> 16000 nM
same,IC50,NCI-H322M,> 16000 nM
same,IC50,A-431,> 16000 nM
same,IC50,HCC1806,> 16000 nM
same,IC50,SBC-5,> 16000 nM
same,IC50,SKG-IIIa,> 16000 nM
same,IC50,PFSK-1,> 16000 nM
same,IC50,A-375,> 16000 nM
same,IC50,COLO-679,> 16000 nM
same,IC50,RL,> 16000 nM
same,IC50,NCI-H2170,> 16000 nM
same,IC50,LoVo,> 16000 nM
same,IC50,OAW-28,> 16000 nM
same,IC50,Capan-2,> 16000 nM
same,IC50,THP-1,> 16000 nM
same,IC50,BL-70,> 16000 nM
same,IC50,COLO-792,> 16000 nM
same,IC50,MHH-ES-1,> 16000 nM
same,IC50,COR-L23,> 16000 nM
same,IC50,ST486,> 16000 nM
same,IC50,SW1710,> 16000 nM
same,IC50,786-0,5590 nM
same,IC50,HCC 2998,> 16000 nM
same,IC50,BL-41,> 16000 nM
same,IC50,C-33-A,> 16000 nM
same,IC50,EB2,> 16000 nM
same,IC50,COLO-680N,> 16000 nM
same,IC50,NCI-H1522,> 16000 nM
same,IC50,KYSE-520 cell line,> 16000 nM
same,IC50,MDA-MB-157,> 16000 nM
same,IC50,HuP-T4,> 16000 nM
same,IC50,LU-99A,> 16000 nM
same,IC50,KU-19-19,> 16000 nM
same,IC50,TE-15,> 16000 nM
same,IC50,SAS,> 16000 nM
same,IC50,DG-75,> 16000 nM
same,IC50,NCI-H524,> 16000 nM
same,IC50,U-698-M,> 16000 nM
same,IC50,639-V,> 16000 nM
same,IC50,OE33,> 16000 nM
Cc1ccc(C(=O)Nc2ccc(CN3CCN(C)CC3)c(C(F)(F)F)c2)cc1C#Cc1cnc2cccnn12 [PONATINIB],IC50,769-P,> 512 nM
same,IC50,DMS-79,> 512 nM
same,IC50,BOKU,> 512 nM
same,IC50,YAPC,> 512 nM
same,IC50,23132-87,> 512 nM
same,IC50,LB373-MEL-D,> 512 nM
same,IC50,UACC-893,> 512 nM
same,IC50,SU-DHL-1,63.8 nM
same,IC50,CaR-1,> 512 nM
same,IC50,HEC-1,> 512 nM
same,IC50,U2OS,> 512 nM
same,IC50,WSU-NHL,> 512 nM
same,IC50,NCI-H1693,> 512 nM
same,IC50,PC-14,> 512 nM
same,IC50,HLE,419 nM
same,IC50,NCI-H1417,> 512 nM
same,IC50,Huh-7,278 nM
same,IC50,EHEB,> 512 nM
same,IC50,SW626,> 512 nM
same,IC50,CAL-39,465 nM
same,IC50,NCI-H322M,> 512 nM
same,IC50,A-431,> 512 nM
same,IC50,HCC1806,> 512 nM
same,IC50,SBC-5,> 512 nM
same,IC50,SKG-IIIa,> 512 nM
same,IC50,PFSK-1,> 512 nM
same,IC50,A-375,> 512 nM
same,IC50,COLO-679,> 512 nM
same,IC50,RL,> 512 nM
same,IC50,NCI-H2170,> 512 nM
same,IC50,LoVo,> 512 nM
same,IC50,OAW-28,> 512 nM
same,IC50,Capan-2,> 512 nM
same,IC50,THP-1,> 512 nM
same,IC50,BL-70,22 nM
same,IC50,COLO-792,> 512 nM
same,IC50,MHH-ES-1,> 512 nM
same,IC50,COR-L23,> 512 nM
same,IC50,ST486,> 512 nM
same,IC50,SW1710,365 nM
same,IC50,786-0,262 nM
same,IC50,HCC 2998,> 512 nM
same,IC50,BL-41,> 512 nM
same,IC50,C-33-A,> 512 nM
same,IC50,EB2,55.8 nM
same,IC50,COLO-680N,> 512 nM
same,IC50,NCI-H1522,> 512 nM
same,IC50,KYSE-520 cell line,> 512 nM
same,IC50,MDA-MB-157,> 512 nM
same,IC50,HuP-T4,> 512 nM
same,IC50,LU-99A,> 512 nM
same,IC50,KU-19-19,> 512 nM
same,IC50,TE-15,261 nM
same,IC50,SAS,> 512 nM
same,IC50,DG-75,> 512 nM
same,IC50,NCI-H524,> 512 nM
same,IC50,U-698-M,> 512 nM
same,IC50,639-V,> 512 nM
same,IC50,OE33,> 512 nM
